Common to all, as to type: in vivo, Kunming mice
The test system of assay [1] is mice with sterility induced by androgens. In words: Estradiol (E2) content in sera of mice with sterility induced by androgens (ELISA). Particulars: 18 mg/kg intragastric, 4 weeks, TP-modelled female mice, serum. (An ELISA detects its analyte on a solid surface through an enzyme-linked reagent.)
Assay [2] has the same test system. Put plainly: Quantities of follicles, oocytes and interstitial gland composition in ovary slices of androgen-sterile mice. Particulars: 18 mg/kg intragastric, 4 weeks, TP-modelled mice. The method, then:
(§1) 120 Kunming female mice (20 days old) were randomly divided into 6 groups according to their weights and there were 20 in each group. 20 mice in the normal control group were subcutaneously injected with saline and the remaining 100 mice were used in modeling and subcutaneously injected with TP (testosterone propionate). The modeling method is described like this, 100 mice were subcutaneously injected with 0.06 mL TP (testosterone propionate), 4 d/time, continuous injection for 2 weeks and drug withdrawal for 1 weeks. Those mice after modelling were randomly divided into […], i.e. model control group, Clomifenecitrate capsules group and HDG (high-dose group), MDG (medium-dose group) and LDG (low-dose group) of the drug combination in the present invention.
(§2) After 4 weeks of administration, the drug was suspended for 48 h, 10 mice were executed in each group and the remaining 10 mice were left to carry out the conception rate test.
Mice were executed and their ovaries and uterus were removed. Ovaries were fixed with […] and tissue slices were observed under the ordinary optical microscope after the process of HE tinction and oil red 0 tinction. Uterus were fixed with 100 g/L formaldehyde and tissue slices were imbedded with paraffin and undergone the process of 4 μm slicing and ER marking. Light microscopy was used for observation after the hematoxylin counter staining.

Assay [3] has the same test system. Put plainly: Conception conditions of mated female mice after the medication. To be noted: 18 mg/kg, 4 weeks, 10 d after mating. The method, then:
as §1, §2
To put 10 mice from each cage into the cage where 4 normally-matured male mice. 10 d after the mating, uterus of female mice were dissected to observe the conception conditions.

This is an account of results in patent publication US20170246230A1, “PHARMACEUTICAL COMPOSITION FOR TREATING INFERTILITY, AND PREPARATION METHOD AND USE THEREOF” (priority 2014, published 2017).

In assay [1], `CCN(CC)CCOc1ccc(C(=C(Cl)c2ccccc2)c2ccccc2)cc1` [Clomifenecitrate capsules, Clomifenecitrate] showed an E2 of 12.76 ± 4.98 µg/L. Moreover, in assay [2], the Interstitial gland composition came out at 24.96 ± 5.00, the Quantity of follicles was determined as 37.6 ± 6.4 piece and the Quantity of oocytes is 8.7 ± 2.2 piece. In addition, the Number of conception in assay [3] (10 female mice) was 6 mice. Moreover, the Rate of conception in assay [3] was 60.0%.
